Reference: ChEMBL document CHEMBL3421588, “Discovery of novel indirubin-3'-monoxime derivatives as potent inhibitors against CDK2 and CDK9” (Bioorg Med Chem Lett, 2015)
Blank lines part the entries; values can stand above or below the compound they belong to. Calls of active or inactive are those of the source. No cut-off for these calls is given here.

What was measured:
[1] = molecular target: CDK9/cyclin T1 (Homo sapiens) (UniProt O60563+P50750); test: Inhibition of against CDK9/cyclinT1 (unknown origin) at 10 uM using Ulight-CFFKNIVTPRTPPPSQGK-amide substrate and ATP incubated for 90 mins by fluorescence based assay; assay type: protein-complex assay
[2] = molecular target: Cyclin-dependent kinase 2/cyclin E1 (Homo sapiens, UniProt P24941); test: Inhibition of against CDK2/cyclinE1 (unknown origin) using Ulight-CFFKNIVTPRTPPPSQGK-amide substrate and ATP incubated for 15 mins by fluorescence based assay; assay type: protein-complex assay
[3] = molecular target: CDK9/cyclin T1 (Homo sapiens, UniProt P50750); test: Inhibition of against CDK9/cyclinT1 (unknown origin) using Ulight-CFFKNIVTPRTPPPSQGK-amide substrate and ATP incubated for 90 mins by fluorescence based assay; assay type: protein-complex assay
Sequence of CDK9/cyclin T1 (O60563 whole entry): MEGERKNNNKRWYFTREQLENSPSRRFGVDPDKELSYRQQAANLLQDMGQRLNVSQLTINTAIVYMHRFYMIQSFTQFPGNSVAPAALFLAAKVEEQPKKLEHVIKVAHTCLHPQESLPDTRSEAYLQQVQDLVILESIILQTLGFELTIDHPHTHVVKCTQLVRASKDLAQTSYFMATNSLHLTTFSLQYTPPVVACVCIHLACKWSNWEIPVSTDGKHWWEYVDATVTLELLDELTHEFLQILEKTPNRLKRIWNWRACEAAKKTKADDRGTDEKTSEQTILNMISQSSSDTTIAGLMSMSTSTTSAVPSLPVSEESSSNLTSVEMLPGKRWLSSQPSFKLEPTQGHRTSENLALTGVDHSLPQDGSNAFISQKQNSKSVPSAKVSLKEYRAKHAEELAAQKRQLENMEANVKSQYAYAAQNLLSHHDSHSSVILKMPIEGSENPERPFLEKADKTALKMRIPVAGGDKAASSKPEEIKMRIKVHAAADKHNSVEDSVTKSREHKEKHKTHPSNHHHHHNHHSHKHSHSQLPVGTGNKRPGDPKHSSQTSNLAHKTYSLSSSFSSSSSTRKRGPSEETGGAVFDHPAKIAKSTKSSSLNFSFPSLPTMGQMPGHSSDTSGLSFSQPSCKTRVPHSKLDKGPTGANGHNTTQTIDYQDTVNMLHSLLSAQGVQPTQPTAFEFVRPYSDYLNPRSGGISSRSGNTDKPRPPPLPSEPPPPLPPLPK
Sequence of CDK9/cyclin T1 (P50750 whole entry): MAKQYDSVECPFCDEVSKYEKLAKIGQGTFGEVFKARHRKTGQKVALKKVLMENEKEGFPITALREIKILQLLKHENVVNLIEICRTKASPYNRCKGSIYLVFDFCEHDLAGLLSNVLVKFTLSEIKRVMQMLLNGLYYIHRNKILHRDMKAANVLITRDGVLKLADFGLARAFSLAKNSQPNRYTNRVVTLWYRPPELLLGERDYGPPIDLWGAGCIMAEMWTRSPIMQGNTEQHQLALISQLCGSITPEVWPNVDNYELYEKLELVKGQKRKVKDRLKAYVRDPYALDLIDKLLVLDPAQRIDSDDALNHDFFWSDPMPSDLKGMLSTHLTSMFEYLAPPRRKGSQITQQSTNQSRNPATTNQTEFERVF

[4] = Cytotoxicity against human HCT116 cells assessed as inhibition of cell growth by MTT assay; assay type: functional, cell-based, HCT-116
[5] = test system: HepG2; test: Cytotoxicity against human HepG2 cells assessed as inhibition of cell growth by MTT assay; assay type: functional, cell-based
[6] = Cytotoxicity against human BGC823 cells assessed as inhibition of cell growth by MTT assay; assay type: functional, cell-based, BGC-823
[7] = Cytotoxicity against human […] cells assessed as inhibition of cell growth by MTT assay; assay type: functional, cell-based
[8] = test system: A2780; test: Cytotoxicity against human A2780 cells assessed as inhibition of cell growth by MTT assay; assay type: functional, cell-based
[9] = organism: Homo sapiens; test: Selectivity index, ratio of IC50 for CDK2/cyclinE1 (unknown origin) to IC50 for CDK9/cyclinT1 (unknown origin)
[10] = test system: BGC-823; test: Cytotoxicity against human BGC823 cells assessed as inhibition of cell growth at 10 uM by MTT assay; assay type: functional, cell-based
[11] = Homo sapiens, HCT-116, read-out: IC50
[12] = Homo sapiens, HepG2, read-out: IC50
[13] = Homo sapiens, BGC-823, read-out: IC50
[14] = Homo sapiens, A2780, read-out: IC50

Compound: O=C1Nc2ccccc2/C1=C1/Nc2cc(F)c(F)cc2/C1=N\O
inhibition [1]: 67%
IC50 [4, 11]: 2320 nM
IC50 [5, 12]: 1910 nM
IC50 [6, 13]: 6450 nM
IC50 ([7]; Homo sapiens, read-out: IC50): 3040 nM
IC50 [8, 14]: 2500 nM

Compound: O=Nc1c(-c2c(O)[nH]c3ccccc23)[nH]c2ccccc12 [INDIRUBIN-3-MONOXIME]
inhibition [1]: 70%
IC50 [2]: 700 nM
IC50 [3]: 2400 nM

Compound: O=C1Nc2c(Cl)cccc2/C1=C1/Nc2cc(F)c(F)cc2/C1=N\O
inhibition [1]: < 30%
IC50 ([4]; hct-116): Not Active
IC50 ([5]; hepg2): Not Active
IC50 ([6]; bgc-823): Not Active
IC50 [7]: Not Active
IC50 ([8]; a2780): Not Active

Compound: CO/N=C1/C(=C2/C(=O)Nc3ccc(F)cc32)Nc2cc(F)c(F)cc21
inhibition [1]: < 30%
IC50 ([4]; hct-116): Not Active
IC50 ([5]; hepg2): Not Active
IC50 ([6]; bgc-823): Not Active
IC50 [7]: Not Active
IC50 ([8]; a2780): Not Active

Compound: O=C1Nc2ccc([N+](=O)[O-])cc2/C1=C1/Nc2cc(F)c(F)cc2/C1=N\O
inhibition [1]: 89%
IC50 [2]: 1000 nM
IC50 [3]: 700 nM
IC50 [4, 11]: 2160 nM
IC50 [5, 12]: 2450 nM
IC50 [6, 13]: 6140 nM
IC50 ([7]; Homo sapiens, read-out: IC50): 2210 nM
IC50 [8, 14]: 2220 nM

Compound: O=C1Nc2c(Cl)cc(Cl)cc2/C1=C1/Nc2cc(F)c(F)cc2/C1=N\O
inhibition [1]: < 30%
IC50 ([4]; hct-116): Not Active
IC50 ([5]; hepg2): Not Active
IC50 ([6]; bgc-823): Not Active
IC50 [7]: Not Active
IC50 ([8]; a2780): Not Active

Compound: O=C1Nc2ccc(Cl)cc2/C1=C1/Nc2cc(F)c(F)cc2/C1=N\O
inhibition [1]: 86%
IC50 [2]: 6400 nM
IC50 [3]: 400 nM
Ratio IC50 [9]: 15

Compound: CO/N=C1/C(=C2/C(=O)Nc3ccc([N+](=O)[O-])cc32)Nc2cc(F)c(F)cc21
inhibition [1]: < 30%
IC50 ([4]; hct-116): Not Active
IC50 ([5]; hepg2): Not Active
IC50 ([6]; bgc-823): Not Active
IC50 [7]: Not Active
IC50 ([8]; a2780): Not Active

Compound: O=C1Nc2cc(Cl)ccc2/C1=C1/Nc2cc(F)c(F)cc2/C1=N\O
inhibition [1]: 59%

Compound: O=C1Nc2c(cccc2C(F)(F)F)/C1=C1/Nc2cc(F)c(F)cc2/C1=N\O
inhibition [1]: < 30%
IC50 ([4]; hct-116): Not Active
IC50 ([5]; hepg2): Not Active
IC50 ([6]; bgc-823): Not Active
IC50 [7]: Not Active
IC50 ([8]; a2780): Not Active

Compound: CN1C(=O)/C(=C2\Nc3cc(F)c(F)cc3\C2=N/O)c2ccccc21
inhibition [1]: 52%
IC50 [4, 11]: 2220 nM
IC50 [5, 12]: 2540 nM
IC50 [6, 13]: 9200 nM
IC50 ([7]; Homo sapiens, read-out: IC50): 2770 nM
IC50 [8, 14]: 4030 nM

More lines, main results first:

inhibition [1]: 85%
IC50 [2]: 2700 nM
IC50 [3]: 1700 nM
Compound: O=C1Nc2ccc(F)cc2/C1=C1/Nc2cc(F)c(F)cc2/C1=N\O
IC50 [4, 11]: 940 nM
IC50 [5, 12]: 2680 nM
IC50 [6, 13]: 9650 nM
IC50 ([7]; Homo sapiens, read-out: IC50): 2720 nM
IC50 [8, 14]: 2370 nM

inhibition [1]: 84%
IC50 [2]: 400 nM
IC50 [3]: 300 nM
Compound: COc1ccc2c(c1)/C(=C1/Nc3cc(F)c(F)cc3/C1=N\OCCO)C(=O)N2

inhibition [1]: < 30%
Compound: O=C1Nc2ccc(F)cc2/C1=C1/Nc2ccc(OC(F)(F)F)cc2/C1=N\O
IC50 ([4]; hct-116): Not Active
IC50 ([5]; hepg2): Not Active
IC50 ([6]; bgc-823): Not Active
IC50 [7]: Not Active
IC50 ([8]; a2780): Not Active

inhibition [1]: 74%
IC50 [2]: 4100 nM
IC50 [3]: 5600 nM
Compound: O=C1Nc2ccc(OC(F)(F)F)cc2/C1=C1/Nc2cc(F)c(F)cc2/C1=N\O

inhibition [1]: < 30%
Compound: O=C1Nc2ccc([N+](=O)[O-])cc2/C1=C1/Nc2ccc(OC(F)(F)F)cc2/C1=N\O
IC50 ([4]; hct-116): Not Active
IC50 ([5]; hepg2): Not Active
IC50 ([6]; bgc-823): Not Active
IC50 [7]: Not Active
IC50 ([8]; a2780): Not Active

inhibition [1]: 60%
Compound: Nc1ccc2c(c1)/C(=C1/Nc3cc(F)c(F)cc3/C1=N\O)C(=O)N2
IC50 [4, 11]: 5820 nM
IC50 [5, 12]: 5620 nM
IC50 ([7]; Homo sapiens, read-out: IC50): 2540 nM
IC50 [8, 14]: 2260 nM
growth inhibition (GI) [10]: inactive

inhibition [1]: 81%
IC50 [2]: 1100 nM
IC50 [3]: 1900 nM
Compound: COc1ccc2c(c1)/C(=C1/Nc3cc(F)c(F)cc3/C1=N\O)C(=O)N2

inhibition [1]: < 30%
Compound: COc1ccc2c(c1)/C(=C1/Nc3ccc(OC(F)(F)F)cc3/C1=N\O)C(=O)N2
IC50 ([4]; hct-116): Not Active
IC50 ([5]; hepg2): Not Active
IC50 ([6]; bgc-823): Not Active
IC50 [7]: Not Active
IC50 ([8]; a2780): Not Active

inhibition [1]: 65%
Compound: Cc1ccc2c(c1)/C(=C1/Nc3cc(F)c(F)cc3/C1=N\O)C(=O)N2
